Data on one compound can be found in patent US20120259008A1, “METHOD FOR TREATING ASTHENOPIA” (SUCAMPO AG, priority 2011, published 2012).

Holding throughout (assay type): in vivo, human
Experiment [1] in a line: eye drop twice a day for seven days to a subject with presbyopia and astigmatism who was difficult to focus on the objects. The settings on record: eye drop comprising 0.12% twice a day. From the text:
A subject who was difficult to focus on the objects even using the farsighted glasses received eye drop comprising 0.12% isopropyl unoprostone twice a day. They were presbyopia and astigmatism.

The nature of experiment [2]: single administration of eye drop to a subject who had blurring of vision. The following applies: eye drop comprising 0.12%, after single administration, subject with blurring of vision. The source says:
A subject who had blurring of vision received eye drop comprising 0.12% isopropyl unoprostone. After single administration of it, eye discharge and blurry vision were improved. On the other hand, after single administration of placebo, eye discharge and blurry vision were not improved.

A short description of experiment [3]: single administration of eye drop to a subject who had eye pain. The settings on record: eye drop comprising 0.12%, after single administration, subject with eye pain. From the text:
A subject who had eye pain received eye drop comprising 0.12% isopropyl unoprostonen. After single administration of it, eye pain was improved. On the other hand, after single administration of placebo, eye pain was not improved.

Consider `CCCCCCCC(=O)CC[C@@H]1[C@@H](C/C=C\CCCC(=O)OC(C)C)[C@@H](O)C[C@H]1O` [isopropyl unoprostone, (+)-isopropyl (Z)-7-[(1R,2R,3R,5S)-3,5-dihydroxy-2-(3-oxodecyl)cyclopentyl]hept-5-enoate], for which, in experiment [1] (after seven days administration, subject with presbyopia and astigmatism), the “ability to focus on the objects (accommodative function)” value is “able to focus on the objects easier and quicker than before the administration”. Besides, the “duration of the improvement in focusing” value in experiment [1] (seven days administration) is “continued for three weeks”. For the same compound, in experiment [2], the blurry vision result is given as “improved” and the eye discharge entry was “improved”. In experiment [3], the eye pain entry was “improved”.
